Assays:
[1] = test system: platelet aggregation by ADP; experiment: Platelet aggregation in vitro (inhibition of ADP-induced aggregation of guinea pig PRP, Born's method); type: cell-based, guinea pigs; details: Cavia porcellus, ADP 0.6-1 μM, 37° C.
Description: Determination of Platelet Aggregation in Vitro
Blood was collected from abdominal aorta of guinea pigs under anesthesia with pentobarbital (20 mg/kg, i.p.) using sodium citrate as an anticoagulant (final concentration: 0.315%). The sodium citrate--supplemented blood was centrifuged at 950 rpm for 10 minutes and 2,000 rpm for 10 minutes respectively at room temperature to obtain platelet rich plasma (PRP) and platelet poor plasma (PPP). The number of platelet was counted an automatic platelet counter (Sysmex E2500, Toaiyo-denshi). PRP was diluted with PPP to adjust the number of platelets to be 500,000/μl. Platelet aggregation was measured as follows, in accordance with Born's method (Nature 194: 927, 1962), using an 8-channel aggregometer (NBS HEMA TRACER VI, Niko Bioscience Inc.): The PRP (250 μl) was incubated at 37° C. for 2 minutes, to which was then added 25 μl of a test drug solution. Two minutes later, 25 μl of an agent (ADP) for causing agglutination. The effect of the test drug was shown by the inhibition rate of the maximum aggregation rate of the test group against that of the control group. ADP was used in the minimum concentration (0.6-1 μM) capable of obtaining maximum aggregation.

[2] = test system: ex vivo platelet aggregation; experiment: Ex vivo platelet aggregation inhibitory action (PRP of infused guinea pigs, ADP); type: in vivo; details: continuous i.v. infusion for 90 minutes, ADP 0.5 to 1 μM
Description: (§1) Bleeding Time in Guinea Pigs and Determination of Ex Vivo Platelet Aggregation Inhibitory Action
(§2) Male Hartley guinea pigs (body weight: about 400 g) were employed. These animals were intravenously infused continuously, under anesthesia with pentobarbital, with a physiological saline solution or receptor-antagonistdissolved in the solution at a dose of 10 μl/kg/min.
After 90 minutes of the continuous infusion, blood was collected from abdominal aorta using sodium citrate (whole blood:3.15% citric acid solution=9:1 by volume). […]
Platelet aggregation was measured by using an 8-channel photo-extinction type platelet aggregometer (NBS/HEMA TRACER 801, Niko Bioscience). […] The PRP was set in the aggregometer and incubated for two minutes at 37° C., to which was added 20 μl of ADP (0.5 to 1 μM), and the changes of transmittance were recorded. The difference of PRP and PPP in photo-extinction was assumed 100%, and, with the maximum photo-extinction rates, the maximum aggregation rates (%) were determined. The effects of the drugs were determined by comparing the maximum aggregation rates (%) of animals continuously infused with a physiological saline solution with those of animals continuously infused with receptor antagonist.

[3] = Bleeding time in guinea pigs (continuous intravenous infusion, Simplate R incision); type: in vivo; details: continuous i.v. infusion for 90 minutes
Description: as §1, §2
After the continuous infusion for 90 minutes, the thigh of each animal was applied with a rubber cuff and charged with 40 mmHg, then given an incised sound with Simplate R (Organon Teknika). Thereafter, at 30 sec. each interval, blood was absorbed into a filter paper. The time until no more blood was absorbed into the filter paper was measured. The bleeding time of normal five guinea pigs was about 276 sec.

| SMILES | IC50 [1] | other results |
| --- | --- | --- |
| N=C(N)c1ccc(C(=O)NCC(=O)N2CCN(CC(=O)O)C(=O)[C@@H]2CCCN)cc1 [compound 1] | 520 nM |  |
| N=C(N)c1ccc(C(=O)NCCC[C@H]2C(=O)N(CC(=O)O)CCN2C(=O)CNC(=O)c2ccc(C(=N)N)cc2)cc1 [compound 2] | 37 nM | Inhibitory rate (ex vivo platelet aggregation inhibition) ([2]; 2 μg/kg/min): 100%; Bleeding time ([3]; 2 μg/kg/min): 308 ± 33 s |
| COc1ccc(C[C@H](NC(=O)c2ccc(C(=N)N)cc2)C(=O)N2CCN(CC(=O)O)C(=O)[C@@H]2CCCN)cc1 [compound 5] | 16 nM |  |
| COc1ccc(C[C@H](NC(=O)c2ccc(C(=N)N)cc2)C(=O)N2CCN(CC(=O)O)C(=O)[C@@H]2CCCNC(=O)c2ccc(C(=N)N)cc2)cc1 [compound 6] | 20 nM |  |
| COc1ccc(C[C@H](NC(=O)c2ccc(C(=N)N)cc2)C(=O)N2CCN(CC(=O)O)C(=O)[C@@H]2CCCCN)cc1 [compound 7] | 19 nM |  |
| COc1ccc(C[C@H](NC(=O)c2ccc(C(=N)N)cc2)C(=O)N2CCN(CC(=O)O)C(=O)[C@@H]2CCCCNC(=O)c2ccc(C(=N)N)cc2)cc1 [compound 8] | 12 nM |  |
| N=C(N)c1ccc(C(=O)NCC(=O)N2CCN(CC(=O)O)C(=O)[C@@H]2CCCNC(=O)CCCCCN)cc1 [compound 9] | 180 nM |  |
| N=C(N)c1ccc(C(=O)NCC(=O)N2CCN(CC(=O)O)C(=O)[C@@H]2CCCNC(=O)CCCCN)cc1 [compound 10] | 200 nM |  |
| N=C(N)c1ccc(C(=O)NCC(=O)N2CCN(CC(=O)O)C(=O)[C@@H]2CCCNC(=O)CCCN)cc1 [compound 11] | 230 nM |  |
| COc1ccc(C[C@H](NC(=O)c2ccc(C(=N)N)cc2)C(=O)N2CCN(CC(=O)O)C(=O)[C@@H]2CCCCNC(=N)N)cc1 [compound 12] | 25 nM |  |
| N=C(N)NCCCC(=O)NCCC[C@H]1C(=O)N(CC(=O)O)CCN1C(=O)CNC(=O)c1ccc(C(=N)N)cc1 [compound 13] | 110 nM |  |
| N=C(N)Nc1ccc(C(=O)NCCC[C@H]2C(=O)N(CC(=O)O)CCN2C(=O)CNC(=O)c2ccc(NC(=N)N)cc2)cc1 [compound 15] | 51 nM | Inhibitory rate (ex vivo platelet aggregation inhibition) ([2]; 3 μg/kg/min): 100%; Bleeding time ([3]; 3 μg/kg/min): 250 ± 26 s |
| N=C(N)Nc1ccc(C(=O)NCC[C@H]2C(=O)N(CC(=O)O)CCN2C(=O)CNC(=O)c2ccc(C(=N)N)cc2)cc1 [compound 16] | 44 nM |  |
| N=C(N)c1ccc(C(=O)NCC(=O)N2CCN(CC(=O)O)C(=O)[C@@H]2CN)cc1 [compound 17] | 240 nM |  |
| N=C(N)c1ccc(C(=O)NCC(=O)N2CCN(CC(=O)O)C(=O)[C@@H]2CNC(=O)c2ccc(C(=N)N)cc2)cc1 [compound 18] | 130 nM |  |
| N=C(N)c1ccc(C(=O)NCC[C@H]2C(=O)N(CC(=O)O)CCN2C(=O)CNC(=O)c2ccc(C(=N)N)cc2)cc1 [compound 19] | 180 nM |  |
| N=C(N)c1ccc(C(=O)NCCC[C@@H]2C(=O)N(CC(=O)O)CCN2C(=O)CNC(=O)c2ccc(C(=N)N)cc2)cc1 [compound 22] | 3800 nM |  |
| N=C(N)Nc1ccc(C(=O)NCCC[C@H]2C(=O)N(CC(=O)O)CCN2C(=O)CNC(=O)c2ccc(C(=N)N)cc2)cc1 [compound 23] | 17 nM |  |
| N=C(N)c1ccc(NC(=O)CC[C@H]2C(=O)N(CC(=O)O)CCN2C(=O)CNC(=O)c2ccc(C(=N)N)cc2)cc1 [compound 24] | 250 nM |  |
| N=C(N)Cc1ccc(C(=O)NC[C@H]2C(=O)N(CC(=O)O)CCN2C(=O)CNC(=O)c2ccc(C(=N)N)cc2)cc1 [compound 25] | 54 nM |  |
| N=C(N)NCc1ccc(C(=O)NC[C@H]2C(=O)N(CC(=O)O)CCN2C(=O)CNC(=O)c2ccc(C(=N)N)cc2)cc1 [compound 26] | 84 nM |  |
| COc1ccc(C[C@H](NC(=O)c2ccc(C(=N)N)cc2)C(=O)N2CCN(CC(=O)O)C(=O)[C@@H]2CCCNC(=O)CCCCCN)cc1 [compound 27] | 18 nM |  |
| COc1ccc(C[C@H](NC(=O)c2ccc(C(=N)N)cc2)C(=O)N2CCN(CC(=O)O)C(=O)[C@@H]2CCCCNC(=O)CN)cc1 [compound 28] | 19 nM |  |
| COC(=O)ON=C(N)c1ccc(C(=O)NCCC[C@H]2C(=O)N(CC(=O)O)CCN2C(=O)CNC(=O)c2ccc(C(N)=NOC(=O)OC)cc2)cc1 [compound 30] | 19000 nM |  |
| COC(=O)ON=C(N)c1ccc(C(=O)NCCC[C@H]2C(=O)N(CC(=O)O)CCN2C(=O)CNC(=O)c2ccc(C(=N)N)cc2)cc1 [compound 31] | 190 nM |  |
| N=C(N)c1ccc(C(=O)NCCC[C@H]2C(=O)N(CC(=O)O)CCN2C(=O)CNC(=O)c2ccc(CCN)cc2)cc1 [compound 32] | 53 nM |  |

Source: patent US6020334A, “Piperazinones, their production and use” (Takeda Chemical Industries, Ltd., priority 1995, dated 2000)
